Converted amounts (≈) assume the structure as drawn.
What was measured:
[1] = tested on: Streptococcus pyogenes; assay: Antibacterial activity against Streptococcus pyogenes MTCC 442 at 250 ug/ml after 24 hrs by Kirby-Bauer method; assay type: functional; settings: MTCC 442, 24 h, read-out: IZ
[2] = tested on: Escherichia coli; assay: Antibacterial activity against Escherichia coli MTCC 443 after 24 hrs by broth dilution method; assay type: functional; settings: MTCC 443, 24 h
[3] = tested on: Pseudomonas aeruginosa; assay: Antibacterial activity against Pseudomonas aeruginosa MTCC 424 after 24 hrs by broth dilution method; assay type: functional; settings: MTCC 424, 24 h
[4] = tested on: Staphylococcus aureus; assay: Antibacterial activity against Staphylococcus aureus MTCC 96 after 24 hrs by broth dilution method; assay type: functional; settings: MTCC 96, 24 h
[5] = tested on: Staphylococcus aureus; assay: Antibacterial activity against Staphylococcus aureus MTCC 96 at 250 ug/ml after 24 hrs by Kirby-Bauer method; assay type: functional; settings: MTCC 96, 24 h, read-out: IZ
[6] = tested on: Streptococcus pyogenes; assay: Antibacterial activity against Streptococcus pyogenes MTCC 442 after 24 hrs by broth dilution method; assay type: functional; settings: MTCC 442, 24 h
[7] = tested on: Escherichia coli; assay: Antibacterial activity against Escherichia coli MTCC 443 at 250 ug/ml after 24 hrs by Kirby-Bauer method; assay type: functional; settings: MTCC 443, 24 h, read-out: IZ
[8] = tested on: Pseudomonas aeruginosa; assay: Antibacterial activity against Pseudomonas aeruginosa MTCC 424 at 250 ug/ml after 24 hrs by Kirby-Bauer method; assay type: functional; settings: MTCC 424, 24 h, read-out: IZ
[9] = tested on: Candida albicans; assay: Antifungal activity against Candida albicans MTCC 227; assay type: functional
[10] = tested on: Aspergillus clavatus; assay: Antifungal activity against Aspergillus clavatus MTCC 1323 at 250 ug/ml after 74 hrs by Kirby-Bauer method; assay type: functional
[11] = tested on: Aspergillus niger; assay: Antifungal activity against Aspergillus niger MTCC 282; assay type: functional
[12] = tested on: Aspergillus clavatus; assay: Antifungal activity against Aspergillus clavatus MTCC 1323; assay type: functional
[13] = tested on: Aspergillus niger; assay: Antifungal activity against Aspergillus niger MTCC 282 at 250 ug/ml after 74 hrs by Kirby-Bauer method; assay type: functional; settings: MTCC 282, 74 h, read-out: IZ
[14] = tested on: Candida albicans; assay: Antifungal activity against Candida albicans MTCC 227 at 250 ug/ml after 74 hrs by Kirby-Bauer method; assay type: functional; settings: MTCC 227, 74 h, read-out: IZ
[15] = Selectivity index, ratio of CC50 for human MT4 cells to IC50 for HIV2 ROD; assay type: functional
[16] = Selectivity index, ratio of CC50 for human MT4 cells to IC50 for HIV1 3B; assay type: functional
[17] = Cytotoxicity against human MT4 cells by MTT assay; assay type: cell-based
[18] = tested on: Human immunodeficiency virus 1; assay: Antiviral activity against HIV1 3B infected in MT4 cells assessed as inhibition of virus-induced cytopathogenicity by MTT assay; assay type: functional, organism-based; settings: Human immunodeficiency virus 1, 3B
[19] = tested on: Human immunodeficiency virus 2; assay: Antiviral activity against HIV2 ROD infected in MT4 cells assessed as inhibition of virus-induced cytopathogenicity by MTT assay; assay type: functional, organism-based; settings: Human immunodeficiency virus 2, ISOLATE ROD
[20] = tested on: Human alphaherpesvirus 3; assay: Antiviral activity against Varicella-zoster virus Oka expressing thymidine kinase infected in HEL cells assessed as reduction in plaque formation; assay type: functional, organism-based; settings: Human alphaherpesvirus 3, strain Oka vaccine
[21] = tested on: Cytomegalovirus; assay: Antiviral activity against Cytomegalovirus Davis in HEL cells assessed as reduction in plaque formation; assay type: functional, organism-based; settings: Human betaherpesvirus 5, Davis
[22] = Cytotoxicity against human HEL cells; assay type: cell-based
[23] = tested on: Cytomegalovirus; assay: Antiviral activity against Cytomegalovirus AD-169 infected in HEL cells assessed as reduction in plaque formation; assay type: functional, organism-based; settings: Human betaherpesvirus 5, AD-169, HEL
[24] = tested on: Human alphaherpesvirus 3; assay: Antiviral activity against thymidine kinase-deficient Varicella-zoster virus infected in HEL cells assessed as reduction in plaque formation; assay type: functional, organism-based; settings: Human alphaherpesvirus 3, HEL
[25] = Cytotoxicity against human HEL cells assessed as alteration in cell morphology; assay type: cell-based

Compound	zone of inhibition at 250 µg/mL [1]	MIC [2]	MIC [3]	MIC [4]	zone of inhibition at 250 µg/mL [5]	MIC [6]	zone of inhibition at 250 µg/mL [7]	zone of inhibition at 250 µg/mL [8]	further results
CCn1cc(C(=O)O)c(=O)c2cc(F)c(N3CCNCC3)cc21 [NORFLOXACIN]	21 mm	10 µg/mL (≈ 31.3 µM)	10 µg/mL (≈ 31.3 µM)	10 µg/mL (≈ 31.3 µM)	28 mm	10 µg/mL (≈ 31.3 µM)	29 mm	23 mm	–
NYSTATIN	–	–	–	–	–	–	–	–	MIC [9]: 100 µg/mL; inhibition zone (IZ) [10]: 26 mm; MIC [11]: 100 µg/mL; MIC [12]: 100 µg/mL
CN1CCN(Cc2c([O-])on[n+]2-c2ccc(Cc3ccc(-[n+]4noc([O-])c4CN4CCN(C)CC4)cc3)cc2)CC1	22 mm	250 µg/mL (≈ 446 µM)	250 µg/mL (≈ 446 µM)	500 µg/mL (≈ 892 µM)	16 mm	62.5 µg/mL (≈ 111 µM)	19 mm	19 mm	MIC [9]: 500 µg/mL (≈ 892 µM); zone of inhibition at 250 µg/mL [13]: 20 mm; zone of inhibition at 250 µg/mL [14]: 19 mm; zone of inhibition at 250 µg/mL ([10]; MTCC 1323, 74 h, read-out: IZ): 23 mm; MIC [11]: 1000 µg/mL (≈ 1780 µM); MIC [12]: 500 µg/mL (≈ 892 µM)
Cc1cn([C@H]2C[C@H](N=[N+]=[N-])[C@@H](CO)O2)c(=O)[nH]c1=O [ZIDOVUDINE]	–	–	–	–	–	–	–	–	Ratio CC50/IC50 [15]: >26731; Ratio CC50/IC50 [16]: >11587; CC50 [17]: > 25 µg/mL; IC50 [18]: 0.0022 µg/mL (≈ 0.00823 µM); IC50 [19]: 0.00094 µg/mL (≈ 0.00352 µM)
CC1(C)S[C@@H]2[C@H](NC(=O)[C@H](N)c3ccccc3)C(=O)N2[C@H]1C(=O)O [AMPICILLIN]	19 mm	100 µg/mL (≈ 286 µM)	100 µg/mL (≈ 286 µM)	250 µg/mL (≈ 715 µM)	18 mm	100 µg/mL (≈ 286 µM)	20 mm	20 mm	–
[O-]c1c[n+](-c2ccc(Cc3ccc(-[n+]4cc([O-])on4)cc3)cc2)no1	–	–	–	–	–	–	–	–	EC50 [20]: > 4 µg/mL; EC50 [21]: > 20 µg/mL; CC50 [22]: 33.3 µg/mL (≈ 99 µM); EC50 [23]: > 4 µg/mL; EC50 [24]: > 4 µg/mL; MCC [25]: ≥ 20 µg/mL
O=C(N[C@H](CO)[C@H](O)c1ccc([N+](=O)[O-])cc1)C(Cl)Cl [CHLORAMPHENICOL]	20 mm	50 µg/mL (≈ 155 µM)	50 µg/mL (≈ 155 µM)	50 µg/mL (≈ 155 µM)	21 mm	50 µg/mL (≈ 155 µM)	23 mm	21 mm	–
O=C(O)c1cn(C2CC2)c2cc(N3CCNCC3)c(F)cc2c1=O [CIPROFLOXACIN]	22 mm	25 µg/mL (≈ 75.4 µM)	–	50 µg/mL (≈ 151 µM)	22 mm	50 µg/mL (≈ 151 µM)	28 mm	27 mm	–
Cc1ccc(-[n+]2cc([O-])on2)cc1	–	–	–	–	–	–	–	–	EC50 [20]: > 20 µg/mL; EC50 [21]: > 20 µg/mL; CC50 [22]: 33.1 µg/mL (≈ 188 µM); EC50 [23]: > 20 µg/mL; EC50 [24]: > 20 µg/mL; MCC [25]: 100 µg/mL
Cc1ccnc2c1NC(=O)c1cccnc1N2C1CC1 [NEVIRAPINE]	–	–	–	–	–	–	–	–	Ratio CC50/IC50 [15]: <1; Ratio CC50/IC50 [16]: >80; CC50 [17]: > 4 µg/mL; IC50 [18]: 0.05 µg/mL (≈ 0.188 µM); IC50 [19]: > 4 µg/mL

Source: ChEMBL document CHEMBL3044741, “Synthesis of novel biologically active methylene derivatives of sydnones” (Med Chem Res, 2013)
